Source: ChEMBL document CHEMBL3351921, “Structure-activity relationships (SAR) and structure-kinetic relationships (SKR) of pyrrolopiperidinone acetic acids as CRTh2 antagonists” (Bioorg Med Chem Lett, 2014)
Each block holds one compound with its values, some of them ahead of it.

Key:
[1] = target: T1, Prostaglandin D2 receptor 2 (Homo sapiens, UniProt Q9Y5Y4); experiment: Antagonist activity at CRTh2 (unknown origin) stably expressed in PGD2-stimulated CHO.K1 cells preincubated for 1 hr by radio-labelled [35S]-GTPgammaS binding assay; assay type: functional, cell-based
T1 sequence (Q9Y5Y4 whole entry): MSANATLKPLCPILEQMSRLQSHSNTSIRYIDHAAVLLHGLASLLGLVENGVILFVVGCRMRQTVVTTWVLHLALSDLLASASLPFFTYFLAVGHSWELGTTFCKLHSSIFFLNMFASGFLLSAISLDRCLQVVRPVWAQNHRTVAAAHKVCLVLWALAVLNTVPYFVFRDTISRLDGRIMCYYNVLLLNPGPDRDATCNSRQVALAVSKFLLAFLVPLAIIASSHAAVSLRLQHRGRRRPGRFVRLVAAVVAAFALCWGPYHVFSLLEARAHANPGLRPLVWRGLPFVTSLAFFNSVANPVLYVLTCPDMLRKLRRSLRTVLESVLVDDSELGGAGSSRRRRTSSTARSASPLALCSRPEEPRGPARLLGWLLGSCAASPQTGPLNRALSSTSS

[2] = target: T2, Prostaglandin D2 receptor (Homo sapiens) (UniProt Q13258); experiment: Inhibition of at prostanoid DP1 receptor (unknown origin) at 10 uM
T2 sequence (whole entry): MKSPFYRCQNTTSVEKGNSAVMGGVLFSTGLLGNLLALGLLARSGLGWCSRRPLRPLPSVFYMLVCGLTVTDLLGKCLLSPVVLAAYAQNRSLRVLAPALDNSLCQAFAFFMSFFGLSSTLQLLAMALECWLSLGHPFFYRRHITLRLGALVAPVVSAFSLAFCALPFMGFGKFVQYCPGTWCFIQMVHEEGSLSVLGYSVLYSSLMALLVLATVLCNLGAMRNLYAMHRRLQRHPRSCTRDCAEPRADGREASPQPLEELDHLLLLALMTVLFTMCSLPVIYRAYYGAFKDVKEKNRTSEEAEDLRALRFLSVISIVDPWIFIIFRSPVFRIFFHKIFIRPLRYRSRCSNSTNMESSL

[3] = target: T3, Thromboxane A2 receptor (Homo sapiens) (UniProt P21731); experiment: Inhibition of at prostanoid TP receptor (unknown origin) at 10 uM
T3 sequence (whole entry): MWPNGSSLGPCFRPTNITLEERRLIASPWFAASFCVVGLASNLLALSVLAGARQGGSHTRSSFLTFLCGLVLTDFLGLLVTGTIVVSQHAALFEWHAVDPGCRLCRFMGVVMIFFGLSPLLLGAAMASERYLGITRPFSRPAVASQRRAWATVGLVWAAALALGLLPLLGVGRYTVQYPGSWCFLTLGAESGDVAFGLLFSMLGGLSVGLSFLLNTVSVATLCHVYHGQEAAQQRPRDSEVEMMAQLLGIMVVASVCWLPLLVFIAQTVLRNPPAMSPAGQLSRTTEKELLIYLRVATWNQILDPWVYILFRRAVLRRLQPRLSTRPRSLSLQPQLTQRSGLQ

[4] = Cmax in rat at 1 mg/kg, iv; assay type: ADME, organism-based; design: dose 1 mg/kg, route intravenous; conditions: in vivo
[5] = Clearance in rat at 1 mg/kg, iv; assay type: ADME, organism-based; design: dose 1 mg/kg, route intravenous; conditions: in vivo
[6] = AUC (0 to infinity) in rat at 1 mg/kg, iv; assay type: ADME, organism-based; design: time infinity, dose 1 mg/kg, route intravenous; conditions: plasma
[7] = Volume of distribution at steady state in rat at 1 mg/kg, iv; assay type: ADME, organism-based; design: dose 1 mg/kg, route intravenous; conditions: in vivo, read-out: Vdss
[8] = Terminal half life in rat at 1 mg/kg, iv; assay type: ADME, organism-based; design: dose 1 mg/kg, route intravenous; conditions: in vivo, read-out: beta t1/2 (converted)
[9] = Cmax in rat at 10 mg/kg, po; assay type: ADME, organism-based; design: dose 10 mg/kg, route oral; conditions: in vivo
[10] = AUC (0 to infinity) in rat at 10 mg/kg, po; assay type: ADME, organism-based; design: time infinity, dose 10 mg/kg, route oral; conditions: plasma
[11] = Terminal half life in rat at 10 mg/kg, po; assay type: ADME, organism-based; design: dose 10 mg/kg, route oral; conditions: in vivo, read-out: beta t1/2 (converted)
[12] = Oral bioavailability in rat at 10 mg/kg; assay type: ADME, organism-based; conditions: in vivo
[13] = target: T4, Prostaglandin D2 receptor 2 (Homo sapiens) (UniProt Q9Y5Y4); conditions: CHO.K1
T4 sequence (whole entry): T1 sequence (Q9Y5Y4 whole entry)
Description: Antagonist activity at CRTh2 (unknown origin) stably expressed in PGD2-stimulated CHO.K1 cells assessed as dissociation half-life at 5 to 10 times IC50 after 2 hrs by radio-labelled [35S]-GTPgammaS binding assay

[14] = Dissociation constant, pKa of the compound by potentiometric method; assay type: physicochemical
[15] = target: T1, Prostaglandin D2 receptor 2; experiment: Antagonist activity at CRTh2 (unknown origin) stably expressed in CHO.K1 cells co-mixing the compound and PGD2 by radio-labelled [35S]-GTPgammaS binding assay; assay type: functional, cell-based
[16] = target: T1, Prostaglandin D2 receptor 2; experiment: Antagonist activity at CRTh2 (unknown origin) stably expressed in PGD2-stimulated CHO.K1 cells preincubated for 15 mins by radio-labelled [35S]-GTPgammaS binding assay; assay type: functional, cell-based
[17] = target: T1, Prostaglandin D2 receptor 2; experiment: Antagonist activity at CRTh2 (unknown origin) stably expressed in PGD2-stimulated CHO.K1 cells preincubated for 30 mins by radio-labelled [35S]-GTPgammaS binding assay; assay type: functional, cell-based
[18] = target: T1, Prostaglandin D2 receptor 2; experiment: Antagonist activity at CRTh2 (unknown origin) stably expressed in PGD2-stimulated CHO.K1 cells preincubated for 60 mins by radio-labelled [35S]-GTPgammaS binding assay; assay type: functional, cell-based
[19] = target: T1, Prostaglandin D2 receptor 2; experiment: Antagonist activity at CRTh2 (unknown origin) stably expressed in PGD2-stimulated CHO.K1 cells preincubated for 120 mins by radio-labelled [35S]-GTPgammaS binding assay; assay type: functional, cell-based
[20] = target: T1, Prostaglandin D2 receptor 2; experiment: Antagonist activity at CRTh2 (unknown origin) stably expressed in PGD2-stimulated CHO.K1 cells preincubated for 180 mins by radio-labelled [35S]-GTPgammaS binding assay; assay type: functional, cell-based
[21] = Apparent permeability across apical to basolateral side of human Caco2 cells at pH 7.4; assay type: ADME, cell-based; conditions: Caco-2, pH 7.4

Compound: CCN(Cc1ccccc1Cc1c2c(n(CC(=O)O)c1C)CCNC2=O)C(=O)C1CC1
IC50 [1]: 240 nM

Compound: Cc1c(Cc2ccccc2S(=O)(=O)c2ccc(F)cc2)c2c(n1CC(=O)O)CCNC2=O
IC50 [1]: 3.3 nM | inhibition [2]: < 30% | inhibition [3]: < 30% | Cmax [4]: 5740 ng/mL | clearance [5]: 6.8 mL/min/kg | AUC(0-inf) [6]: 2460 ng·h/mL | Vd [7]: 0.19 L/kg | half-life [8]: 2.2 h | Cmax [9]: 102 ng/mL | AUC(0-inf) [10]: 380 ng·h/mL | half-life [11]: 5.6 h | bioavailability [12]: 1.5% | T1/2 [13]: 3.3 h

Compound: Cc1c(Cc2ccccc2S(=O)(=O)c2ccccc2)c2c(n1[C@@H](C)C(=O)O)CCNC2=O
IC50 [1]: 91 nM

Compound: COc1ccc(S(=O)(=O)c2ccccc2Cc2c3c(n(CC(=O)O)c2C)CCNC3=O)cc1
T1/2 [13]: 3.2 h

Compound: Cc1c(Cc2ccccc2S(=O)(=O)c2ccc(Cl)cc2)c2c(n1CC(=O)O)CCNC2=O
IC50 [1]: 8.5 nM | T1/2 [13]: 1.2 h

Compound: Cc1c(Cc2cc(C#N)ccc2S(=O)(=O)c2ccccc2)c2c(n1CC(=O)O)CCNC2=O
IC50 [1]: 28 nM | T1/2 [13]: 0.6 h

Compound: Cc1c(Cc2ccccc2Cn2ccnn2)c2c(n1CC(=O)O)CCNC2=O
IC50 [1]: 800 nM

Compound: COc1ccc(S(=O)(=O)c2ccc(F)cc2)c(Cc2c3c(n(CC(=O)O)c2C)CCNC3=O)c1
IC50 [1]: 7.1 nM | inhibition [2]: < 30% | inhibition [3]: < 30% | pKa [14]: 3.1 | Cmax [4]: 1960 ng/mL | clearance [5]: 27 mL/min/kg | AUC(0-inf) [6]: 613 ng·h/mL | Vd [7]: 0.31 L/kg | half-life [8]: 0.3 h | Cmax [9]: 36 ng/mL | AUC(0-inf) [10]: 76 ng·h/mL | half-life [11]: 2.2 h | bioavailability [12]: 1.2% | IC50 [15]: 10 nM | IC50 [16]: 6.9 nM | IC50 [17]: 4.1 nM | IC50 [18]: 3.6 nM | IC50 [19]: 2.4 nM | IC50 [20]: 2.1 nM | T1/2 [13]: 23 h

Compound: Cc1c(Cc2ccc(C(=O)O)cc2S(=O)(=O)c2ccccc2)c2c(n1CC(=O)O)CCNC2=O
IC50 [1]: 19 nM

Compound: Cc1c(Cc2ccccc2S(=O)(=O)c2ccccc2)c2c(=O)[nH]ccc2n1CC(=O)O
Papp A→B [21]: 0.1 ×10⁻⁶ cm/s | T1/2 [13]: 1.3 h

Compound: Cc1c(Cc2ccccc2S(=O)(=O)c2ccccc2)c2c(=O)n(C(F)F)ccc2n1CC(=O)O
IC50 [1]: 2.2 nM | inhibition [2]: < 30% | inhibition [3]: < 30% | Papp A→B [21]: 0.4 ×10⁻⁶ cm/s | T1/2 [13]: 21 h

Compound: Cc1c(Cc2ccccc2S(=O)(=O)c2ccccc2)c2c(n1CC(=O)O)CCN(C(C)C)C2=O
IC50 [1]: 9 nM | pKa [14]: 2.9 | T1/2 [13]: 2.6 h

Compound: Cc1c(Cc2ccc(S(C)(=O)=O)cc2)c2c(n1CC(=O)O)CCNC2=O
IC50 [1]: 900 nM

Compound: Cc1c(Cc2ccc(S(=O)(=O)c3ccccc3)cc2)c2c(n1CC(=O)O)CCNC2=O
IC50 [1]: 170 nM

Compound: COc1ccc(S(=O)(=O)c2ccc(F)cc2)c(Cc2c3c(n(CC(=O)O)c2C)CC(C)(C)NC3=O)c1
IC50 [1]: 5 nM | T1/2 [13]: 20 h

Continued, values first:

IC50 [1]: 4500 nM
Compound: COc1cccc(S(=O)(=O)c2ccccc2)c1Cc1c2c(n(CC(=O)O)c1C)CCNC2=O

T1/2 [13]: 1.7 h
Compound: Cc1c(Cc2cc(F)ccc2S(=O)(=O)c2ccccc2)c2c(n1CC(=O)O)CCNC2=O

inhibition [2]: < 30% | inhibition [3]: < 30% | T1/2 [13]: 0.8 h
Compound: Cc1c(Cc2ccccc2S(=O)(=O)c2cccc(F)c2)c2c(n1CC(=O)O)CCNC2=O

T1/2 [13]: 0.4 h
Compound: COc1cccc(Cc2c3c(n(CC(=O)O)c2C)CCNC3=O)c1S(=O)(=O)c1ccccc1

T1/2 [13]: 1.1 h
Compound: Cc1c(Cc2ccccc2S(=O)(=O)c2ccccc2F)c2c(n1CC(=O)O)CCNC2=O

IC50 [1]: 26 nM | T1/2 [13]: 0.6 h
Compound: Cc1c(Cc2ccccc2S(=O)(=O)N(C)Cc2ccccc2)c2c(n1CC(=O)O)CCNC2=O

IC50 [1]: 32 nM | pKa [14]: 3.1 | T1/2 [13]: 0.4 h
Compound: Cc1c(Cc2ccccc2C(O)c2ccccc2)c2c(n1CC(=O)O)CCNC2=O (centres undefined)

IC50 [1]: 810 nM
Compound: Cc1c(Cc2ccccc2C(=O)c2ccccc2)c2c(n1CC(=O)O)CCNC2=O
